Some results are limits rather than exact numbers.

REV-ERBα LBD, sequence (P20393 with tags, fused parts or gaps DEL324-422): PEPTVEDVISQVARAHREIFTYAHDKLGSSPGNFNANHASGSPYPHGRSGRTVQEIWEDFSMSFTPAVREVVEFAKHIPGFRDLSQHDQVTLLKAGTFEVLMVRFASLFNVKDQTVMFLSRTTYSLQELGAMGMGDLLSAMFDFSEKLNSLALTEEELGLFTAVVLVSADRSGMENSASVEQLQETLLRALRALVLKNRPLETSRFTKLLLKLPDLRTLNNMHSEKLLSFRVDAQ
REV-ERBα LBD, sequence (Q9Y618 2335-2356 partner limits assumed): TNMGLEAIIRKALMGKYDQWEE

The assay has as its target REV-ERBα LBD (Homo sapiens, UniProt P20393, DEL324-422). In words: biochemical. The following applies: FRET assay; 6xHistag-REV-ERBα LBD with FITC-labeled SMRT corepressor peptide; read-out: REVERBα (Agonism of REV-ERBα, EC50). An outline of the steps:
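Serially diluted ligands were incubated 2 h at 4° C, in triplicate, with E. coli-expressed His-REV-ERBα LBD (281-614 Δ324-422 or 381-579; 4 nM), Tb-anti-His (1 nM) and FITC-labelled SMRT peptide (400 nM). EC50 came from sigmoidal fits of the 520/495 nm TR-FRET ratio.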
On to `O=S(=O)(N[C@@H](c1cn(C2CCC2)c2cc(-c3ccc(F)cc3C(F)(F)F)c(F)cc12)C(F)F)C1CC1` [Compound 154, (S)—N-(1-(1-cyclobutyl-5-fluoro-6-(4-fluoro-2-(trifluoromethyl)phenyl)-1H-indol-3-yl)-2,2-difluoroethyl)cyclopropanesulfonamide], for which the EC50 was under 100 nM. The same measure for `O=S(=O)(N[C@@H](c1cn(C2CCC2)c2nc(-c3ccc(F)cc3C(F)(F)F)c(F)cc12)C(F)F)C1CC1` [Compound 155, (S)—N-(1-(1-cyclobutyl-5-fluoro-6-(4-fluoro-2-(trifluoromethyl)phenyl)-1H-pyrrolo[2,3-b]pyridin-3-yl)-2,2-difluoroethyl)cyclopropanesulfonamide]: under 100 nM; for `O=S(=O)(N[C@@H](c1cn(C2CCC2)c2cc(-c3ncc(F)cc3C(F)(F)F)c(F)cc12)C(F)F)C1CC1` [Compound 156, (S)—N-(1-(1-cyclobutyl-5-fluoro-6-(5-fluoro-3-(trifluoromethyl)pyridin-2-yl)-1H-indol-3-yl)-2,2-difluoroethyl)cyclopropanesulfonamide]: under 100 nM. Turning to `Cc1cnc(C(F)(F)F)c(-c2nc3c(cc2F)c([C@H](NS(=O)(=O)C2CC2)C(F)F)cn3C2CCC2)c1` [Compound 157, (S)—N-(1-(1-cyclobutyl-5-fluoro-6-(5-methyl-2-(trifluoromethyl)pyridin-3-yl)-1H-pyrrolo[2,3-b]pyridin-3-yl)-2,2-difluoroethyl)cyclopropanesulfonamide], the EC50 is under 100 nM.

`N#Cc1cccc(C(F)(F)F)c1-c1nc2c(cc1F)c([C@H](NS(=O)(=O)C1CC1)C(F)F)cn2C1CCC1` [Compound 158, N-((1S)-1-(6-(2-cyano-6-(trifluoromethyl)phenyl)-1-cyclobutyl-5-fluoro-1H-pyrrolo[2,3-b]pyridin-3-yl)-2,2-difluoroethyl)cyclopropanesulfonamide]: the half-maximal effective concentration (EC50) was under 100 nM. Turning to `N#Cc1nccc(C(F)(F)F)c1-c1cc2c(cc1F)c([C@H](NS(=O)(=O)C1CC1)C(F)F)cn2C1CCC1` [Compound 159, N-((1S)-1-(6-(2-cyano-4-(trifluoromethyl)pyridin-3-yl)-1-cyclobutyl-5-fluoro-1H-indol-3-yl)-2,2-difluoroethyl)cyclopropanesulfonamide], the half-maximal effective concentration (EC50) was under 100 nM.

With `N#Cc1nccc(C(F)(F)F)c1-c1nc2c(cc1F)c([C@H](NS(=O)(=O)C1CC1)C(F)F)cn2C1CCC1` [Compound 160, N-((1S)-1-(6-(2-cyano-4-(trifluoromethyl)pyridin-3-yl)-1-cyclobutyl-5-fluoro-1H-pyrrolo[2,3-b]pyridin-3-yl)-2,2-difluoroethyl)cyclopropanesulfonamide], the EC50 was under 100 nM. Turning to `N#Cc1nccc(C(F)F)c1-c1cc2c(cc1F)c([C@H](NS(=O)(=O)C1CC1)C(F)F)cn2C1CCC1` [Compound 161, N-((1S)-1-(6-(2-cyano-4-(difluoromethyl)pyridin-3-yl)-1-cyclobutyl-5-fluoro-1H-indol-3-yl)-2,2-difluoroethyl)cyclopropanesulfonamide], the EC50 was under 100 nM. Regarding `N#Cc1nccc(C(F)F)c1-c1nc2c(cc1F)c([C@H](NS(=O)(=O)C1CC1)C(F)F)cn2C1CCC1` [Compound 162, N-((1S)-1-(6-(2-cyano-4-(difluoromethyl)pyridin-3-yl)-1-cyclobutyl-5-fluoro-1H-pyrrolo[2,3-b]pyridin-3-yl)-2,2-difluoroethyl)cyclopropanesulfonamide], the EC50 was under 100 nM. As for `[2H]C1([2H])CC(S(=O)(=O)N[C@@H](c2cn(CC(C)(C)C)c3cc(-c4ccccc4C(F)(F)F)ccc23)C(F)F)C1` [Compound 163, (S)—N-(2,2-difluoro-1-(1-neopentyl-6-(2-(trifluoromethyl)phenyl)-1H-indol-3-yl)ethyl)cyclobutane-1-sulfonamide-3,3-d2], the figure is under 100 nM; as for `CC(C)(C)Cn1cc([C@H](NS(=O)(=O)C2CC2)C(F)F)c2cc(F)c(-c3ccc(F)cc3C(F)(F)F)cc21` [Compound 164, (S)—N-(2,2-difluoro-1-(5-fluoro-6-(4-fluoro-2-(trifluoromethyl)phenyl)-1-neopentyl-1H-indol-3-yl)ethyl)cyclopropanesulfonamide], under 100 nM; as for `O=S(=O)(N[C@@H](c1cn(C2CCC2)c2nc(-c3cc(Cl)cnc3C(F)(F)F)c(F)cc12)C(F)F)C1CC1` [Compound 165, (S)—N-(1-(6-(5-chloro-2-(trifluoromethyl)pyridin-3-yl)-1-cyclobutyl-5-fluoro-1H-pyrrolo[2,3-b]pyridin-3-yl)-2,2-difluoroethyl)cyclopropanesulfonamide], under 100 nM. As to `CC(C)(C)Cn1cc([C@H](NS(=O)(=O)C2CC2)C(F)F)c2ccc(-c3ccc(=O)[nH]c3C(F)(F)F)cc21` [Compound 166, (S)—N-(2,2-difluoro-1-(1-neopentyl-6-(6-oxo-2-(trifluoromethyl)-1,6-dihydropyridin-3-yl)-1H-indol-3-yl)ethyl)cyclopropanesulfonamide], the EC50 is under 100 nM. As to `CC(C)(C)Cn1cc([C@H](NS(=O)(=O)C2CC2)C(F)F)c2ccc(-c3ccc(N)nc3C(F)(F)F)cc21` [Compound 167, (S)—N-(1-(6-(6-amino-2-(trifluoromethyl)pyridin-3-yl)-1-neopentyl-1H-indol-3-yl)-2,2-difluoroethyl)cyclopropanesulfonamide], the EC50 was under 100 nM. For `CN1CC(n2cc([C@H](NS(=O)(=O)C3CC3)C(F)F)c3cc(F)c(-c4ccc(F)cc4C(F)(F)F)cc32)C1` [Compound 168, (S)—N-(2,2-difluoro-1-(5-fluoro-6-(4-fluoro-2-(trifluoromethyl)phenyl)-1-(1-methylazetidin-3-yl)-1H-indol-3-yl)ethyl)cyclopropanesulfonamide], the EC50 fell in the range of 100 to 1000 nM.

In the case of `CC(C)(C)Cn1cc([C@H](NS(=O)(=O)C2CC2)C(F)F)c2cc(F)c(-c3ccc(=O)[nH]c3C(F)(F)F)cc21` [Compound 169, (S)—N-(2,2-difluoro-1-(5-fluoro-1-neopentyl-6-(6-oxo-2-(trifluoromethyl)-1,6-dihydropyridin-3-yl)-1H-indol-3-yl)ethyl)cyclopropanesulfonamide], the EC50 is under 100 nM. As for `CC(C)(C)Cn1cc([C@H](NS(=O)(=O)C2CCC2)C(F)F)c2cc(F)c(-c3ccc(F)cc3C(F)(F)F)cc21` [Compound 170, (S)—N-(2,2-difluoro-1-(5-fluoro-6-(4-fluoro-2-(trifluoromethyl)phenyl)-1-neopentyl-1H-indol-3-yl)ethyl)cyclobutanesulfonamide], the figure is under 100 nM.

Turning to `CC(C)(C)Cn1cc([C@H](NS(=O)(=O)C2CC2)C(F)(F)F)c2cc(F)c(-c3cccnc3C(F)(F)F)cc21` [Compound 171, (S)—N-(2,2,2-trifluoro-1-(5-fluoro-1-neopentyl-6-(2-(trifluoromethyl)pyridin-3-yl)-1H-indol-3-yl)ethyl)cyclopropanesulfonamide], the EC50 is under 100 nM. As to `CC(C)(C)Cn1cc([C@H](NS(=O)(=O)C2CC2)C(F)F)c2cc(F)c(C3CCOCC3)cc21` [Compound 172, (S)—N-(2,2-difluoro-1-(5-fluoro-1-neopentyl-6-(tetrahydro-2H-pyran-4-yl)-1H-indol-3-yl)ethyl)cyclopropanesulfonamide], the EC50 was under 100 nM. Take `CC(C)(C)Cn1cc([C@H](NS(=O)(=O)C2CC2)C(F)F)c2ccc(C3CCOCC3)cc21` [Compound 174, (S)—N-(2,2-difluoro-1-(1-neopentyl-6-(tetrahydro-2H-pyran-4-yl)-1H-indol-3-yl)ethyl)cyclopropanesulfonamide]: the EC50 was under 100 nM. As to `O=c1ccc(-c2nc3c(cc2F)c([C@H](NS(=O)(=O)C2CC2)C(F)F)cn3C2CCC2)c(C(F)(F)F)[nH]1` [Compound 175, (S)—N-(1-(1-cyclobutyl-5-fluoro-6-(6-oxo-2-(trifluoromethyl)-1,6-dihydropyridin-3-yl)-1H-pyrrolo[2,3-b]pyridin-3-yl)-2,2-difluoroethyl)cyclopropanesulfonamide], the EC50 is under 100 nM.

Turning to `O=S(=O)(N[C@@H](c1cn(C2COC2)c2cc(-c3ccc(F)cc3C(F)(F)F)c(F)cc12)C(F)F)C1CC1` [Compound 176, (S)—N-(2,2-difluoro-1-(5-fluoro-6-(4-fluoro-2-(trifluoromethyl)phenyl)-1-(oxetan-3-yl)-1H-indol-3-yl)ethyl)cyclopropanesulfonamide], the EC50 was 100 to 1000 nM. The same measure for `O=S(=O)(N[C@@H](c1cn(C2COC2)c2nc(-c3ccc(F)cc3C(F)(F)F)c(F)cc12)C(F)F)C1CC1` [Compound 177, (S)—N-(2,2-difluoro-1-(5-fluoro-6-(4-fluoro-2-(trifluoromethyl)phenyl)-1-(oxetan-3-yl)-1H-pyrrolo[2,3-b]pyridin-3-yl)ethyl)cyclopropanesulfonamide]: 100 to 1000 nM. Consider `N#CC1CC(n2cc([C@H](NS(=O)(=O)C3CC3)C(F)F)c3cc(F)c(-c4ccc(F)cc4C(F)(F)F)cc32)C1` (stereo partly drawn) [Compound 179, (S)—N-(1-(1-(3-cyanocyclobutyl)-5-fluoro-6-(4-fluoro-2-(trifluoromethyl)phenyl)-1H-indol-3-yl)-2,2-difluoroethyl)cyclopropanesulfonamide], for which the EC50 was under 100 nM. As for `Nc1ccc(-c2nc3c(cc2F)c([C@H](NS(=O)(=O)C2CC2)C(F)F)cn3C2CCC2)c(C(F)(F)F)n1` [Compound 180, (S)—N-(1-(6-(6-amino-2-(trifluoromethyl)pyridin-3-yl)-1-cyclobutyl-5-fluoro-1H-pyrrolo[2,3-b]pyridin-3-yl)-2,2-difluoroethyl)cyclopropanesulfonamide], the figure is under 100 nM; as for `O=S(=O)(N[C@@H](c1cn(C2CC(F)C2)c2cc(-c3ccc(F)cc3C(F)(F)F)c(F)cc12)C(F)F)C1CC1` (stereo partly drawn) [Compound 181, (S)—N-(2,2-difluoro-1-(5-fluoro-6-(4-fluoro-2-(trifluoromethyl)phenyl)-1-(3-fluorocyclobutyl)-1H-indol-3-yl)ethyl)cyclopropanesulfonamide], under 100 nM.

Broadly, the EC50 is the midpoint of the concentration-response curve.

The values are drawn from US20260285846A1, “REV-ERB AGONISTS FOR TH17-MEDIATED INFLAMMATORY DISORDERS” (UNIVERSITY OF FLORID RESEARCH FOUNDATION, iNCORPORATED, priority 2021, published 2026).
